# Test results published in patent publication US12029724B2, “Method for inhibiting tumor growth” (Eisai R&D Management Co., Ltd., priority 2016, dated 2024).
# Counter-ions that a name gives are not always drawn.
# Legend:
# [1] = system: OMC9 sarcoma (leiomyosarcoma); test: anti-tumor activity, OMC9 xenograft in nude mice; format: in vivo, human; settings: OMC9 model, BALB/c nu/nu mice, i.v. day 0 and day 7, start tumor volume 150 mm^3, log RTV, day 7-day 35
# Excerpt: (§1) Cancer cell lines were purchased from the Riken Bioresource Center (RBC, Japan (Ibaraki)), American Type Culture Collection (ATCC, USA (Manassas, Va.)), Deutsche Sammlung von Mikroorganismen and Zellkulturen GmbH (German Collection of Microorganisms and Cell Cultures GmbH: DSMZ, Germany (Braunschweig)), Health Science Research Resource Bank (HSRRB, Japan (Osaka)), and the DS Pharma Biomedical Co., Ltd. (DS-Pharma, Japan (Osaka)), and were kindly donated by the Kyushu Cancer Center, Kagoshima University, and the Cell Resource Center for Biomedical Research of the Institute of Development, Aging, and Cancer of Tohoku University.
# (§2) In the tables, the cancer cell lines to which “*” is added in the “acclimation” column were obtained from grown tumors which were formed by subcutaneously inoculating each cancer cell line to a mouse in advance.
# (§3) On the initial day of inoculation, the cancer cells were harvested by trypsinization and were washed and suspended using the particular medium. Some of the harvested cancer cells were then mixed with GelTrex (Gibco, #12760-021 or A14132-02) at 1:1. […]
# (§4) The tumor size was measured over time with a caliper, and the tumor volume was determined based on the following calculation formula. tumor volume (mm^3)=length (mm)×square of width (mm^2)×½ […]
# [2] = system: MES-SA sarcoma (leiomyosarcoma); test: anti-tumor activity, MES-SA xenograft in nude mice; format: in vivo, human
# Excerpt: as §1, §2, §3, §4
# [3] = system: SK-UT-1 sarcoma (leiomyosarcoma); test: anti-tumor activity, SK-UT-1 xenograft in nude mice; format: in vivo, human; settings: day 3-day 10
# Excerpt: as §1, §2, §3, §4
# [4] = system: SK-LMS-1 sarcoma (leiomyosarcoma); test: anti-tumor activity, SK-LMS-1 xenograft in nude mice; format: in vivo, human; settings: SK-LMS-1 model, i.v. day 0 and day 7, start tumor volume 290 mm^3, log RTV, day 2-day 7
# Excerpt: as §1, §2, §3, §4
# [5] = system: A673 sarcoma (Ewing sarcoma); test: anti-tumor activity, A673 xenograft in nude mice; format: in vivo, human; settings: A673 model, i.v. day 0 and day 7, start tumor volume 220 mm^3, log RTV, day 4-day 18
# Excerpt: as §1, §2, §3, §4
# [6] = system: MFE-280 uterine cancer (endometrial cancer); test: anti-tumor activity, MFE-280 xenograft in nude mice; format: in vivo, human; settings: MFE-280 model, i.v. day 0 and day 7, start tumor volume 200 mm^3, log RTV, day 4-day 14
# Excerpt: as §1, §2, §3, §4
# [7] = system: MFE-296 uterine cancer (endometrial cancer); test: anti-tumor activity, MFE-296 xenograft in nude mice; format: in vivo, human; settings: MFE-296 model, i.v. day 0 and day 7, start tumor volume 200 mm^3, log RTV, day 4-day 14
# Excerpt: as §1, §2, §3, §4
# [8] = system: HEC-151 uterine cancer (endometrial cancer); test: anti-tumor activity, HEC-151 xenograft in nude mice; format: in vivo, human; settings: HEC-151 model, i.v. day 0 and day 7, start tumor volume 220 mm^3, log RTV, day 3-day 14
# Excerpt: as §1, §2, §3, §4
# [9] = system: ECC-1 uterine cancer (endometrial cancer); test: anti-tumor activity, ECC-1 xenograft in nude mice; format: in vivo, human; settings: ECC-1 model, i.v. day 0 and day 7, start tumor volume 160 mm^3, log RTV, day 4-day 19
# Excerpt: as §1, §2, §3, §4
# [10] = system: KB (HeLa) uterine cancer (cervical cancer); test: anti-tumor activity, KB (HeLa) xenograft in nude mice; format: in vivo, human; settings: KB (HeLa) model, i.v. day 0 and day 7, start tumor volume 150 mm^3, log RTV, day 7-day 14
# Excerpt: as §1, §2
# The KB cells indicated as a cancer cell line in Table 2 were originally thought to be derived from an epithelial cancer. […] In addition, ITS-G supplement (Wako Pure Chemical Industries, Ltd., #090-06741) was used as the ITS. […]
# as §4
# [11] = system: AsPC-1 pancreatic cancer; test: anti-tumor activity, AsPC-1 xenograft in nude mice; format: in vivo, human; settings: AsPC-1 model, i.v. day 0 and day 7, start tumor volume 380 mm^3, log RTV, day 3-day 35
# Excerpt: as §1, §2, §3, §4
# [12] = system: BXPC-3 pancreatic cancer; test: anti-tumor activity, BXPC-3 xenograft in nude mice; format: in vivo, human; settings: BXPC-3 model, i.v. day 0 and day 7, start tumor volume 120 mm^3, log RTV, day 7-day 21
# Excerpt: as §1, §2, §3, §4
# [13] = system: KP-1 pancreatic cancer; test: anti-tumor activity, KP-1 xenograft in nude mice; format: in vivo, human; settings: KP-1 model, i.v. day 0 and day 7, start tumor volume 200 mm^3, log RTV, day 3-day 14
# Excerpt: as §1, §2
# as §3, with “1:1. Using a 26-gauge syringe needle, these cells were inoculated at a volume of 0.1 mL into the vicinity of the right axillary region of mice (BALB/c nu/nu).” for “1:1.”
# [14] = system: K1 thyroid cancer; test: anti-tumor activity, K1 xenograft in nude mice; format: in vivo, human; settings: K1 model, i.v. day 0 and day 7, start tumor volume 390 mm^3, log RTV, day 3-day 17
# Excerpt: as §1, §2, §3, §4
# [15] = system: U251MG brain tumor (glioblastoma); test: anti-tumor activity, U251MG xenograft in nude mice; format: in vivo, human; settings: U251MG model, i.v. day 0 and day 7, start tumor volume 150 mm^3, log RTV, day 5-day 23
# Excerpt: as §1, §2
# as §3, with “1:1. Using a 26-gauge syringe needle, these cells were inoculated at a volume of 0.1 mL into the vicinity of the right axillary region of mice (BALB/c nu/nu).” for “1:1.”
# [16] = system: PLC/PRF/5 liver cancer (hepatocellular carcinoma); test: anti-tumor activity, PLC/PRF/5 xenograft in nude mice; format: in vivo, human; settings: PLC/PRF/5 model, i.v. day 0 and day 7, start tumor volume 180 mm^3, log RTV, day 4-day 18
# Excerpt: as §1, §2, §3, §4
# [17] = system: Hs746T stomach cancer; test: anti-tumor activity, Hs746T xenograft in nude mice; format: in vivo, human; settings: Hs746T model, i.v. day 0 and day 7, start tumor volume 180 mm^3, log RTV, day 4-day 11
# Excerpt: as §1, §2, §3, §4
# [18] = system: UM-UC-3 urothelial cancer (bladder cancer); test: anti-tumor activity, UM-UC-3 xenograft in nude mice; format: in vivo, human
# Excerpt: as §1, §2, §3, §4
# [19] = system: human xenograft models; test: anti-tumor activity, summary over the 18 human xenograft models; format: in vivo; settings: in all 18 human xenograft models, RM-ANOVA using log RTV, P<0.05
# Excerpt: as §1, §2, §3, §4
structure (smiles),measurement,setting,value
"C=C1C[C@@H]2CC[C@@]34C[C@H]5O[C@H]6[C@@H](O3)[C@H]3O[C@H](CC[C@@H]3O[C@H]6[C@H]5O4)CC(=O)C[C@@H]3[C@@H](OC)[C@@H](C[C@H](O)CN)O[C@H]3C[C@H]3O[C@@H](CC[C@@H]1O2)C[C@@H](C)C3=C [E7389, eribulin mesylate]",RM-ANOVA E7389 vs vehicle,[1],Yes 1
same,RM-ANOVA E7389 vs vehicle,"[2]; MES-SA model (Table 2 conditions), i.v. day 0 and day 7, start tumor volume 190 mm^3, log RTV, day 4-day 18",Yes 1
same,RM-ANOVA E7389 vs vehicle,"[2]; MES-SA model (Table 3 conditions), i.v. day 0 and day 7, start tumor volume 420 mm^3, log RTV, day 3-day 7",Yes 1
same,RM-ANOVA E7389 vs vehicle,"[3]; SK-UT-1 model (Table 2 conditions), i.v. day 0 and day 7, start tumor volume 260 mm^3, log RTV",Yes 1
same,RM-ANOVA E7389 vs vehicle,"[3]; SK-UT-1 model (Table 3 conditions), i.v. day 0 and day 7, start tumor volume 290 mm^3, log RTV",Yes 1
same,RM-ANOVA E7389 vs vehicle,[4],Yes 1
same,RM-ANOVA E7389 vs vehicle,[5],Yes 1
same,RM-ANOVA E7389 vs vehicle,[6],Yes 1
same,RM-ANOVA E7389 vs vehicle,[7],Yes 1
same,RM-ANOVA E7389 vs vehicle,[8],Yes 1
same,RM-ANOVA E7389 vs vehicle,[9],Yes 1
same,RM-ANOVA E7389 vs vehicle,[10],Yes 1
same,RM-ANOVA E7389 vs vehicle,[11],Yes 1
same,RM-ANOVA E7389 vs vehicle,[12],Yes 1
same,RM-ANOVA E7389 vs vehicle,[13],Yes 1
same,RM-ANOVA E7389 vs vehicle,[14],Yes 1
same,RM-ANOVA E7389 vs vehicle,[15],Yes 1
same,RM-ANOVA E7389 vs vehicle,[16],Yes 1
same,RM-ANOVA E7389 vs vehicle,[17],Yes 1
same,RM-ANOVA E7389 vs vehicle,"[18]; UM-UC-3 model (Table 2 conditions), i.v. day 0 and day 7, start tumor volume 230 mm^3, log RTV, day 3-day 10",Yes 1
same,RM-ANOVA E7389 vs vehicle,"[18]; UM-UC-3 model (Table 3 conditions), i.v. day 0 and day 7, start tumor volume 190 mm^3, log RTV, day 3-day 14",Yes 1
same,anti-tumor activity compared to the vehicle group,[19],statistically significant
